Consider 26 compounds from patent US11117900B2 (Vertex Pharmaceuticals Incorporated, priority 2012, dated 2021).

This experiment relates to HCT116 colorectal cancer cells. The experiment is described as follows: Cisplatin sensitization assay (96 h MTS cell viability).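 Also: compound concentration needed to lower the IC50 of Cisplatin alone by a set fold.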 It counts as cell-based. The conditions noted are these: Cisplatin sensitization value. The method in brief: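 HCT116 cells were dosed simultaneously with compound and cisplatin as a full matrix of 2-fold serial dilutions from 10 μM top final concentration. Incubation was 96 h at 37° C., 5% CO2, followed by 1 h with MTS reagent for the viability read-out. Sensitization values were binned into +++, ++ and + categories.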
As for `CN1CC2CC1CN2C(=O)C1CCN(c2c(F)cncc2NC(=O)c2c(N)nn3cc(F)cnc23)CC1` (centres unmarked) [I-G-53, 2-amino-6-fluoro-N-(5-fluoro-4-(4-(5-methyl-2,5-diazabicyclo[2.2.1]heptane-2-carbonyl)piperidin-1-yl)pyridin-3-yl)pyrazolo[1,5-a]pyrimidine-3-carboxamide], the “Cisplatin Sensitization Assay” value is on record as “+++ (Compounds with a Cisplatin sensitization value of <0.02 μM are marked with “+++.”)”.

In the case of `Nc1nn2cc(F)cnc2c1C(=O)Nc1cncc(F)c1C1=CCN(C2COC2)CC1` [I-C-12, 2-amino-6-fluoro-N-(5-fluoro-1′-(oxetan-3-yl)-1′,2′,3′,6′-tetrahydro-[4,4′-bipyridin]-3-yl)pyrazolo[1,5-a]pyrimidine-3-carboxamide], the “Cisplatin Sensitization Assay” value is reported as “+++ (Compounds with a Cisplatin sensitization value of <0.02 μM are marked with “+++.”)”.

For `COCCOc1ccncc1NC(=O)c1c(N)nn2cc(CC#N)cnc12` [I-O-29, 2-amino-6-(cyanomethyl)-N-(4-(2-methoxyethoxy)pyridin-3-yl)pyrazolo[1,5-a]pyrimidine-3-carboxamide], the “Cisplatin Sensitization Assay” value is reported as “+++ (Compounds with a Cisplatin sensitization value of <0.02 μM are marked with “+++.”)”.

Consider `N#CCc1cnc2c(C(=O)Nc3cnccc3OC3CCOC3)c(N)nn2c1` (racemic) [I-O-37, (R,S)-2-amino-6-(cyanomethyl)-N-(4-((tetrahydrofuran-3-yl)oxy)pyridin-3-yl)pyrazolo[1,5-a]pyrimidine-3-carboxamide], for which the “Cisplatin Sensitization Assay” value was “+++ (Compounds with a Cisplatin sensitization value of <0.02 μM are marked with “+++.”)”.

In the case of `Nc1nn2cc(Cl)cnc2c1C(=O)Nc1cnccc1N1CCC(N2CCCC2)CC1` [I-N-105, 2-amino-6-chloro-N-(4-(4-(pyrrolidin-1-yl)piperidin-1-yl)pyridin-3-yl)pyrazolo[1,5-a]pyrimidine-3-carboxamide], the “Cisplatin Sensitization Assay” value is listed as “+++ (Compounds with a Cisplatin sensitization value of <0.02 μM are marked with “+++.”)”.

As for `Cc1ccnn1-c1ccncc1NC(=O)c1c(N)nn2cc(F)cnc12` [I-N-223, 2-amino-6-fluoro-N-(4-(5-methyl-1H-pyrazol-1-yl)pyridin-3-yl)pyrazolo[1,5-a]pyrimidine-3-carboxamide], the “Cisplatin Sensitization Assay” value is reported as “++ (Compounds with a Cisplatin sensitization value >0.02 μM but <0.2 μM are marked with “++.”)”.

For the compound `Nc1nn2cc(F)cnc2c1C(=O)Nc1cncc(F)c1N1CCC(C(=O)N2CC(F)C2)CC1` [I-G-74, 2-amino-6-fluoro-N-(5-fluoro-4-(4-(3-fluoroazetidine-1-carbonyl)piperidin-1-yl)pyridin-3-yl)pyrazolo[1,5-a]pyrimidine-3-carboxamide], the “Cisplatin Sensitization Assay” value is listed as “+++ (Compounds with a Cisplatin sensitization value of <0.02 μM are marked with “+++.”)”.

With `Nc1nn2cc(F)cnc2c1C(=O)Nc1cnccc1N1CCC(C(=O)N2CC3(CCO3)C2)CC1` [I-G-90, N-(4-(4-(1-oxa-6-azaspiro[3.3]heptane-6-carbonyl)piperidin-1-yl)pyridin-3-yl)-2-amino-6-fluoropyrazolo[1,5-a]pyrimidine-3-carboxamide], the “Cisplatin Sensitization Assay” value is “+++ (Compounds with a Cisplatin sensitization value of <0.02 μM are marked with “+++.”)”.

In the case of `N#CCc1cnc2c(C(=O)Nc3cnccc3N3CCC(N)CC3)c(N)nn2c1` [I-N-2, 2-amino-N-(4-(4-aminopiperidin-1-yl)pyridin-3-yl)-6-(cyanomethyl)pyrazolo[1,5-a]pyrimidine-3-carboxamide], the “Cisplatin Sensitization Assay” value is recorded as “+++ (Compounds with a Cisplatin sensitization value of <0.02 μM are marked with “+++.”)”.

On to `CN1CCN(C2CCN(c3c(F)cncc3NC(=O)c3c(N)nn4cc(F)cnc34)CC2)C(=O)C1` [I-N-151, 2-amino-6-fluoro-N-(5-fluoro-4-(4-(4-methyl-2-oxopiperazin-1-yl)piperidin-1-yl)pyridin-3-yl)pyrazolo[1,5-a]pyrimidine-3-carboxamide], for which the “Cisplatin Sensitization Assay” value is listed as “+ (Compounds with a Cisplatin sensitization value >0.2 μM but <5 μM are marked with “+.”)”.

As to `Nc1nn2cc(F)cnc2c1C(=O)Nc1cncc(F)c1N1CCN(S(=O)(=O)C2CC2)CC1` [I-N-159, 2-amino-N-(4-(4-(cyclopropylsulfonyl)piperazin-1-yl)-5-fluoropyridin-3-yl)-6-fluoropyrazolo[1,5-a]pyrimidine-3-carboxamide], the “Cisplatin Sensitization Assay” value is given as “+++ (Compounds with a Cisplatin sensitization value of <0.02 μM are marked with “+++.”)”.

For `Nc1nn2cc(Cl)cnc2c1C(=O)Nc1cnccc1OC1CC2(CNC2)C1` [I-O-72, N-(4-(2-azaspiro[3.3]heptan-6-yloxy)pyridin-3-yl)-2-amino-6-chloropyrazolo[1,5-a]pyrimidine-3-carboxamide], the “Cisplatin Sensitization Assay” value is “+ (Compounds with a Cisplatin sensitization value >0.2 μM but <5 μM are marked with “+.”)”.

For `CCN1CCN(C(=O)C2CCN(c3c(F)cncc3NC(=O)c3c(N)nn4cc(F)cnc34)CC2)CC1` [I-G-9, 2-amino-N-(4-(4-(4-ethylpiperazine-1-carbonyl)piperidin-1-yl)-5-fluoropyridin-3-yl)-6-fluoropyrazolo[1,5-a]pyrimidine-3-carboxamide], the “Cisplatin Sensitization Assay” value was “+++ (Compounds with a Cisplatin sensitization value of <0.02 μM are marked with “+++.”)”.

As to `Nc1nn2cc(F)cnc2c1C(=O)Nc1cncc(F)c1N1CCNCC1` [I-N-118, 2-amino-6-fluoro-N-(5-fluoro-4-(piperazin-1-yl)pyridin-3-yl)pyrazolo[1,5-a]pyrimidine-3-carboxamide], the “Cisplatin Sensitization Assay” value was “+++ (Compounds with a Cisplatin sensitization value of <0.02 μM are marked with “+++.”)”.

Turning to `CN1CCN2CCN(c3c(F)cncc3NC(=O)c3c(N)nn4cc(F)cnc34)CC2C1=O` (centres unmarked) [I-N-240, 2-amino-6-fluoro-N-(5-fluoro-4-(8-methyl-9-oxohexahydro-1H-pyrazino[1,2-a]pyrazin-2(6H)-yl)pyridin-3-yl)pyrazolo[1,5-a]pyrimidine-3-carboxamide], the “Cisplatin Sensitization Assay” value was “++ (Compounds with a Cisplatin sensitization value >0.02 μM but <0.2 μM are marked with “++.”)”.

In the case of `CNCCCN(C)C(=O)C1CCN(c2c(F)cncc2NC(=O)c2c(N)nn3cc(F)cnc23)CC1` [I-G-17], the “Cisplatin Sensitization Assay” value is reported as “+ (Compounds with a Cisplatin sensitization value >0.2 μM but <5 μM are marked with “+.”)”.

Turning to `CS(=O)(=O)CC1CCN(c2ccncc2NC(=O)c2c(N)nn3cc(F)cnc23)CC1` [I-N-215, 2-amino-6-fluoro-N-(4-(4-((methylsulfonyl)methyl)piperidin-1-yl)pyridin-3-yl)pyrazolo[1,5-a]pyrimidine-3-carboxamide], the “Cisplatin Sensitization Assay” value was “+++ (Compounds with a Cisplatin sensitization value of <0.02 μM are marked with “+++.”)”.

As to `Nc1nn2cc(F)cnc2c1C(=O)Nc1cncc(F)c1N1CCC(C(=O)N2CCNC3CC32)CC1` (centres unmarked) [I-G-62, N-(4-(4-(2,5-diazabicyclo[4.1.0]heptane-2-carbonyl)piperidin-1-yl)-5-fluoropyridin-3-yl)-2-amino-6-fluoropyrazolo[1,5-a]pyrimidine-3-carboxamide], the “Cisplatin Sensitization Assay” value is “+++ (Compounds with a Cisplatin sensitization value of <0.02 μM are marked with “+++.”)”.

Turning to `CN1CCOCC1C(=O)N1CCN(c2c(F)cncc2NC(=O)c2c(N)nn3cc(F)cnc23)CC1` (centres unmarked) [I-N-227, 2-amino-6-fluoro-N-(5-fluoro-4-(4-(4-methylmorpholine-3-carbonyl)piperazin-1-yl)pyridin-3-yl)pyrazolo[1,5-a]pyrimidine-3-carboxamide], the “Cisplatin Sensitization Assay” value was “+++ (Compounds with a Cisplatin sensitization value of <0.02 μM are marked with “+++.”)”.

Regarding `Cc1nnc(C2CCN(c3ccncc3NC(=O)c3c(N)nn4cc(F)cnc34)CC2)o1` [I-N-265, 2-amino-6-fluoro-N-(4-(4-(5-methyl-1,3,4-oxadiazol-2-yl)piperidin-1-yl)pyridin-3-yl)pyrazolo[1,5-a]pyrimidine-3-carboxamide], the “Cisplatin Sensitization Assay” value is listed as “++ (Compounds with a Cisplatin sensitization value >0.02 μM but <0.2 μM are marked with “++.”)”.

Turning to `CN1CC(OC2CCN(c3ccncc3NC(=O)c3c(N)nn4cc(F)cnc34)CC2)C1` [I-N-164, 2-amino-6-fluoro-N-(4-(4-((1-methylazetidin-3-yl)oxy)piperidin-1-yl)pyridin-3-yl)pyrazolo[1,5-a]pyrimidine-3-carboxamide], the “Cisplatin Sensitization Assay” value is “+++ (Compounds with a Cisplatin sensitization value of <0.02 μM are marked with “+++.”)”.

Turning to `CC(C)(C#N)c1cnc2c(C(=O)Nc3cncc(F)c3N3CCN(C4COC4)CC3)c(N)nn2c1` [I-N-144], the “Cisplatin Sensitization Assay” value is on record as “+++ (Compounds with a Cisplatin sensitization value of <0.02 μM are marked with “+++.”)”.

As for `CN1CCCCC1C(=O)N1CCN(c2c(F)cncc2NC(=O)c2c(N)nn3cc(F)cnc23)CC1` (centres unmarked) [I-N-173, 2-amino-6-fluoro-N-(5-fluoro-4-(4-(1-methylpiperidine-2-carbonyl)piperazin-1-yl)pyridin-3-yl)pyrazolo[1,5-a]pyrimidine-3-carboxamide], the “Cisplatin Sensitization Assay” value is “+++ (Compounds with a Cisplatin sensitization value of <0.02 μM are marked with “+++.”)”.

Consider `Cn1c(-c2ccncc2NC(=O)c2c(N)nn3cc(F)cnc23)cccc1=O` [I-C-58, 2-amino-6-fluoro-N-(1-methyl-6-oxo-1,6-dihydro-[2,4′-bipyridin]-3′-yl)pyrazolo[1,5-a]pyrimidine-3-carboxamide], for which the “Cisplatin Sensitization Assay” value is “+++ (Compounds with a Cisplatin sensitization value of <0.02 μM are marked with “+++.”)”.

`Nc1nn2cc(F)cnc2c1C(=O)Nc1cncc(F)c1N1CCC(C(=O)N2CCOCC2)CC1` [I-G-36, 2-amino-6-fluoro-N-(5-fluoro-4-(4-(morpholine-4-carbonyl)piperidin-1-yl)pyridin-3-yl)pyrazolo[1,5-a]pyrimidine-3-carboxamide]: the “Cisplatin Sensitization Assay” value is on record as “+++ (Compounds with a Cisplatin sensitization value of <0.02 μM are marked with “+++.”)”.

In the case of `N#CC1CN(C(=O)C2CCN(c3ccncc3NC(=O)c3c(N)nn4cc(F)cnc34)CC2)C1` [I-G-81, 2-amino-N-(4-(4-(3-cyanoazetidine-1-carbonyl)piperidin-1-yl)pyridin-3-yl)-6-fluoropyrazolo[1,5-a]pyrimidine-3-carboxamide], the “Cisplatin Sensitization Assay” value was “+++ (Compounds with a Cisplatin sensitization value of <0.02 μM are marked with “+++.”)”.
